Measurements from patent publication US7268160B2, “Remedies” (Takara Bio, Inc., priority 2000, dated 2007).

Experiments:
[1] = system: NGF production in the L-M cells; test: Enhancing activity for NGF production, Example 13 method (20 hours culture after addition); type: cell-based, murine; conditions: for activity at 6.25 µM: added amount 6.25 μM; for activity at 12.5 µM: added amount 12.5 μM; for activity at 3.125 µM: added amount 3.125 μM; for Enhancement of NGF production (in words): L-M cells
Procedure: (§1) L-M cells (ATCC CCL-1.2) from murine fibroblasts were suspended in an M199 medium (manufactured by ICN) containing 0.5% bactopeptone (manufactured by Gibco BRL) so as to have a concentration of 1.5×10^5 cells/mi. The suspension was put in a 96-well plate in an amount of 0.1 ml each well, and the cells were aseptically cultured. After culturing the cells for 3 days, the medium was removed therefrom, and exchanged with an M199 medium containing 0.5% bovine serum albumin (manufactured by Sigma). Caffeic acid (manufactured by Sigma, dimethyl suif oxide (DMSO) solution), a substance known to have enhancing activity for NGF production, was added to each well containing the cells, so as to have a final concentration of 0, 50, 100 or 200 μM, and the cells were cultured for 24 hours. One having a caffeic acid concentration of 0 μM was used as a negative control. In addition, the final concentration of DM50 in each well was adjusted to 0.1%. After the termination of the culture, the NGF concentration in the culture medium was determined by an enzyme immunoassay method (NGF Emax Immuno Assay System, manufactured by Promega). The degree of the enhancement for NGF production of caffeic acid at each added amount was expressed in percentage as the enhancement ratio (%) on the basis of the NGF concentration in the cell culture medium at each added amount, when the NGF concentration in the cell culture medium of the negative control was defined as 100%. The experiment was carried out twice, and an average value was taken. It was shown that the enhancing activity for NGF production of caffeic acid could be assayed by this method.
The enhancing activity for NGF production of each of the compounds (5) to (12), (17) to (22), (24) and (25) prepared in Preparation Examples 2 to 9 and Examples 1 to 8, and the compound (23) (rosemarinic acid; manufactured by Funakoshi), or caffeic acid (CA), 4-methylcatechol (4MC) and epinephrine (EN), substances conventionally known to enhance NGF production was assayed in the same manner as in Reference Example 1. In addition, the time period for cell culture after the addition of the compound was 20 hours. A negative control was set for every test of each compound. Each experiment was carried out twice, and an average value was taken.
(1) L-M cells (ATCC CCL-1.2) from murine fibroblasts were suspended in an M199 medium (manufactured by ICN) containing 0.5% bactopeptone (manufactured by Gibco) so as to have a concentration of 1.5×10^5 cells/ml. The suspension was put in a 96-well plate in an amount of 0.1 ml each well, and the cells were aseptically cultured. After culturing the cells for 3 days, the medium was removed therefrom, and exchanged with an M199 medium containing 0.5% bovine serum albumin (manufactured by Sigma). Thereto was added an yellow pigment (powder Sun Yellow No. 2, manufactured by San-Ei Gen F.F.I.) obtained by extraction from flower of Carthamus tinctorius LINNE) as the sample so as to have a final concentration of 0, 1.25, 2.5 or 5 mg/ml, and the cells were cultured for 20 hours. After the termination of the culture, the NGF concentration in the culture medium was assayed by an enzyme immunoassay method (NGF Emax Immuno Assay System, manufactured by Promega). The degree of the enhancement for NGF production was expressed in the percentage as an enhancement ratio (%), when the NGF concentration in the cell culture medium with no addition of the sample as the negative control was defined as 100%. The experiment was carried out twice, and an average value was taken. […]
The enhancing activity for NGF production of the purified safflomin A thus obtained was determined in the same manner as in Example 13. The purified safflomin A was added so as to have a fmal concentration of 0 or 2.5 mg/ml. […]

[2] = system: NGF production in the L-M cells; test: Enhancing activity for NGF production, Reference Example 1 method (24 hours culture, NGF enzyme immunoassay of culture medium); type: cell-based, murine; conditions: for Enhancement of NGF production (in words): L-M cells; for Enhancement Ratio (%): negative control = 100%
Procedure: as §1
The enhancing activity for NGF production of the compound (13) (manufactured by Funakoshi) was assayed in the same manner as in Reference Example 1. The compound (13) was added so as to have a final concentration of 0, 0.5, 1, 2, 5, 10, 20 or 50 μM.
The enhancing activity for NGF production of a compound (14) (manufactured by Sigma) was assayed in the same manner as in Reference Example 1. The compound (14) was added so as to have a final concentration of 0, 50, 100 or 200 μM.
The enhancing activity for NGF production of a compound (15) (manufactured by Sigma) was assayed in the same manner as in Reference Example 1. The compound (15) was added so as to have a final concentration of 0, 12.5, 25 or 50 μM.
The enhancing activity for NGF production of a compound (16) (manufactured by Wako Pure Chemical Industries) was assayed in the same manner as in Reference Example 1. The compound (16) was added so as to have a final concentration of 0, 25, 50 or 100 μM.

[3] = Mus musculus, added amount 50 μM, negative control = 100%, read-out: Enhancement Ratio (%)
[4] = Mus musculus, added amount 100 μM, negative control = 100%, read-out: Enhancement Ratio (%)
[5] = Mus musculus, added amount 200 μM, negative control = 100%, read-out: Enhancement Ratio (%)
[6] = Mus musculus, negative control = 100%, read-out: Enhancement Ratio (%)
[7] = Mus musculus, added amount 25 μM, negative control = 100%, read-out: Enhancement Ratio (%)
[8] = added amount 100 μM, negative control = 100%

Compound: CNC[C@H](O)c1ccc(O)c(O)c1 [EN, epinephrine, reference compound]
- activity at 50 µM [1, 3]: 137%
- activity at 100 µM [1, 4]: 218%
- activity at 200 µM [1, 5]: 255%

Compound: α-Hydroxybutein [Compound (25)]
- Enhancement Ratio (%) ([1]; added amount 31.25 μM, negative control = 100%): 160.6%
- Enhancement Ratio (%) ([1]; added amount 62.5 μM, negative control = 100%): 183.6%
- Enhancement Ratio (%) ([1]; added amount 125 μM, negative control = 100%): 273.6%
- Enhancement Ratio (%) ([1]; added amount 250 μM, negative control = 100%): 495.3%

Compound: O=C(CCc1ccc(O)c(O)c1)c1ccc(O)cc1O [Compound (10), Dihydrobutein]
- activity at 6.25 µM [1, 6]: 174%
- activity at 12.5 µM [1, 6]: 333%
- activity at 25 µM [1, 7]: 839%

Compound: CC(=O)Oc1ccc(C(=O)/C=C/c2ccc(OC(C)=O)c(OC(C)=O)c2)c(OC(C)=O)c1 [Compound (5), 3,4,2′,4′-Tetraacetylbutein]
- activity at 6.25 µM [1, 6]: 684%

Compound: O=C(/C=C/c1ccc(O)c(O)c1)C12CC3CC(CC(C3)C1)C2 [Compound (9), 1-Adamantyl-3-(3,4-dihydroxyphenyl)-2-propen-1-one]
- activity at 3.125 µM [1, 6]: 206%
- activity at 6.25 µM [1, 6]: 550%
- activity at 12.5 µM [1, 6]: 810%

Compound: Rosmarinic acid [Compound (23)]
- Enhancement Ratio (%) [1, 8]: 110.9%
- Enhancement Ratio (%) ([1]; added amount 200 μM, negative control = 100%): 131.1%

Compound: CC(=O)C=Cc1ccc(O)c(O)c1 [Compound (8), 4-(3,4-Dihydroxyphenyl)-3-buten-2-one]
- activity at 50 µM [1, 3]: 375%
- activity at 100 µM [1, 4]: 676%

Compound: O=C(/C=C/c1ccc(O)c(O)c1)c1ccc(O)c(O)c1O [Compound (22), 3,4,2′,3′,4′-Pentahydroxy chalcone]
- activity at 50 µM [1, 3]: 124%
- activity at 100 µM [1, 4]: 130%
- activity at 200 µM [1, 5]: 242%

Compound: O=C(C/C=C/c1ccc(O)c(O)c1)C12CC3CC(CC(C3)C1)C2 [Compound (11), 1-Adamantyl-4-(3,4-dihydroxyphenyl)-3-buten-1-one]
- activity at 0.781 µM ([1]; Mus musculus, added amount 0.781 μM, negative control = 100%, read-out: Enhancement Ratio (%)): 775%
- activity at 1.563 µM ([1]; Mus musculus, added amount 1.563 μM, negative control = 100%, read-out: Enhancement Ratio (%)): 866%

Compound: O=C(/C=C/c1ccc(O)c(O)c1)c1cc(O)cc(O)c1 [Compound (20), 3,4,3′,5′-Tetrahydroxychalcone]
- activity at 12.5 µM [1, 6]: 346%
- activity at 25 µM [1, 7]: 482%
- activity at 50 µM [1, 3]: 692%

Compound: O=C(/C=C/c1ccc(O)c(O)c1)c1cc(O)ccc1O [Compound (18), 3,4,2′,5′-Tetrahydroxychalcone]
- activity at 6.25 µM [1, 6]: 471%
- activity at 12.5 µM [1, 6]: 476%
- activity at 25 µM [1, 7]: 874%

Compound: O=C(O)/C=C/c1ccc(O)c(O)c1 [CA, caffeic acid, reference compound]
- Enhancement of NGF production (in words) [2]: enhanced NGF production in a concentration-dependent manner
- Enhancement Ratio (%) ([2]; added amount 50 μM): 89.7%
- Enhancement Ratio (%) ([2]; added amount 100 μM): 150%
- Enhancement Ratio (%) ([2]; added amount 200 μM): 349%
- activity at 50 µM [1, 3]: 165%
- activity at 100 µM [1, 4]: 170%
- activity at 200 µM [1, 5]: 200%

Compound: COc1cc(/C=C/C(=O)CC(=O)/C=C/c2ccc(O)c(OC)c2)ccc1O [Compound (16), Curcumin]
- Enhancement of NGF production (in words) [2]: enhanced NGF production in the L-M cells in a concentration-dependent manner
- Enhancement Ratio (%) ([2]; added amount 25 μM): 114%
- Enhancement Ratio (%) ([2]; added amount 50 μM): 116%
- Enhancement Ratio (%) ([2]; added amount 100 μM): 261%

Compound: O=C(/C=C/c1ccc(O)c(O)c1)c1ccccc1O [Compound (21), 3,4,2′-Trihydroxychalcone]
- activity at 25 µM [1, 7]: 223%
- activity at 50 µM [1, 3]: 229%
- activity at 100 µM [1, 4]: 502%

Compound: Cc1ccc(O)c(O)c1 [Compound 4MC, 4-methylcatechol, reference compound]
- activity at 12.5 µM [1, 6]: 143%
- activity at 25 µM [1, 7]: 313%

Compound: O=C(/C=C/c1ccc(O)c(O)c1)c1ccc(Cl)cc1Cl [Compound (6), 3,4-Dihydroxy-2′,4′-dichloro chalcone]
- activity at 6.25 µM [1, 6]: 763%
- activity at 12.5 µM [1, 6]: 864%

Compound: COc1cc(O)c(CC=C(C)C)c(O)c1C(=O)/C=C/c1ccc(O)cc1 [xanthohumol, Xanthohumol]
- Enhancement of NGF production (in words) [1]: enhanced NGF production in the L-M cells in a concentration-dependent manner
- activity at 15.6 µM ([1]; Mus musculus, added amount 15.6 μM, negative control = 100%, read-out: Enhancement Ratio (%)): 160%
- activity at 31.3 µM ([1]; Mus musculus, added amount 31.3 μM, negative control = 100%, read-out: Enhancement Ratio (%)): 212%
- activity at 62.5 µM ([1]; Mus musculus, added amount 62.5 μM, negative control = 100%, read-out: Enhancement Ratio (%)): 473%
- activity at 125 µM ([1]; Mus musculus, added amount 125 μM, negative control = 100%, read-out: Enhancement Ratio (%)): 897%

Compound: Xanthoangelol [Compound (24)]
- Enhancement Ratio (%) ([1]; added amount 25 μM, negative control = 100%): 126.1%
- Enhancement Ratio (%) ([1]; added amount 50 μM, negative control = 100%): 202.6%
- Enhancement Ratio (%) [1, 8]: 265.7%

Compound: COc1ccc(C(=O)/C=C/c2ccc(O)c(O)c2)c(OC)c1 [Compound (7), 3,4-Dihydroxy-2′,4′-dimethoxy chalcone]
- activity at 6.25 µM [1, 6]: 359%
- activity at 12.5 µM [1, 6]: 410%
- activity at 25 µM [1, 7]: 899%

Compound: Isoliquiritigenin [Compound (14)]
- Enhancement of NGF production (in words) [2]: enhanced NGF production in the L-M cells in a concentration-dependent manner
- Enhancement Ratio (%) ([2]; added amount 50 μM): 310%
- Enhancement Ratio (%) ([2]; added amount 100 μM): 550%
- Enhancement Ratio (%) ([2]; added amount 200 μM): 1884%

Compound: O=C(/C=C/c1ccc(O)c(O)c1)OCCc1ccccc1 [Compound (15), Caffeic acid phenylethylester]
- Enhancement of NGF production (in words) [2]: enhanced NGF production in the L-M cells in a concentration-dependent manner
- Enhancement Ratio (%) ([2]; added amount 12.5 μM): 236%
- Enhancement Ratio (%) ([2]; added amount 25 μM): 263%
- Enhancement Ratio (%) ([2]; added amount 50 μM): 320%

Compound: O=C(/C=C/c1ccc(O)c(O)c1)c1ccc(O)c(O)c1 [Compound (19), 3,4,3′,4′-Tetrahydroxychalcone]
- activity at 12.5 µM [1, 6]: 269%
- activity at 25 µM [1, 7]: 312%
- activity at 50 µM [1, 3]: 844%

Compound: Safflomin A
- Enhancement of NGF production (in words) [1]: enhanced NGF production of the L-M cells
- Enhancement Ratio (%) ([1]; added amount 2.5 mg/ml, negative control = 100%): 130.7%

Compound: O=C(/C=C/c1cc(O)c(O)c(O)c1)c1ccc(O)cc1O [Compound (17), 3,4,5,2′,4′-Pentahydroxychalcone]
- activity at 12.5 µM [1, 6]: 195%
- activity at 25 µM [1, 7]: 598%

Compound: O=C(CC(O)Cc1ccc(O)c(O)c1)C12CC3CC(CC(C3)C1)C2 (centres unmarked) [Compound (12), 1-Adamantyl-3-hydroxy-4-(3,4-dihyroxyphenyl)-butan-1-one]
- activity at 3.125 µM [1, 6]: 108%
- activity at 6.25 µM [1, 6]: 364%
- activity at 12.5 µM [1, 6]: 966%
- activity at 25 µM [1, 7]: 908%
